Key:
[1] = biological target: T1, human CSNK1D (Homo sapiens, UniProt P48730); test: Whole Cell nBRET CSNK1D Binding Assay; details: living CHO cells stably expressing human CSNK1D tagged with nanoluciferase; NanoBret tracer 130 nM; 2 hours at 37 C
T1 construct: expressed in transfected cells

[2] = biological target: T2, human recombinant GST cleaved CSNK1D (Homo sapiens, UniProt P48730); test: Purified Enzyme Assay (ADP-Glo CSNK1D Kinase Assay); type: biochemical; details: 2 nM CSNK1D; peptide substrate 150 μM; ATP 20 μM; 45 minutes at room temperature
T2 construct: GST (cleaved yes); purchased University of Dundee clone DU 19064
How it was run: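 GST-cleaved human recombinant CSNK1D phosphorylates peptide PLSRTL-pS-VASLPGL with ATP; compounds added in dose-response, 45 min at room temperature. ADP formed measured by ADP-Glo luminescence and converted to percent activity.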

T2 sequence (P48730 whole entry): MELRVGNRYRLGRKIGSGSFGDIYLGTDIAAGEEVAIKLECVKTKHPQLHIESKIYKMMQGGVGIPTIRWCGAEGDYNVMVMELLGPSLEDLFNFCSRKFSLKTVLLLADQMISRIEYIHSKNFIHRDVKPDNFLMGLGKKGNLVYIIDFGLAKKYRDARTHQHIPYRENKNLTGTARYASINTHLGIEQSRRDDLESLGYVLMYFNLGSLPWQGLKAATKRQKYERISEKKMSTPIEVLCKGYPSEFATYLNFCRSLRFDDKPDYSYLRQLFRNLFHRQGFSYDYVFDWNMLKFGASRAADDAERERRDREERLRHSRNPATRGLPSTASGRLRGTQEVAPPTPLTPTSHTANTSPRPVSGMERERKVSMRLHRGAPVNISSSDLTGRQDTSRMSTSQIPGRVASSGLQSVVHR
T1 sequence (P48730 whole entry): as above

IC50 [1] [nM]	IC50 [2] [nM]	SMILES
2	1	Fc1ccc(-c2nn3c(c2-c2ccnc4[nH]ncc24)OCC2(CC2)C3)cc1 [Example 457, 2′-(4-Fluorophenyl)-3′-(1H-pyrazolo[3,4-b]pyridin-4-yl)-5′H,7′H-spiro[cyclopropane-1,6′-pyrazolo[5,1-b][1,3]oxazine]]
240	17	COCC1CCc2c(-c3cc(C)nc4[nH]ncc34)c(-c3ccc(F)cn3)nn2C1 (single isomer, unassigned) [Example 296, (*S)-4-[2-(5-Fluoro-2-pyridyl)-6-(methoxymethyl)-4,5,6,7-tetrahydropyrazolo[1,5-a]pyridin-3-yl]-6-methyl-1H-pyrazolo[3,4-b]pyridine]
77	8	Fc1ccc(-c2nn3c(c2-c2c(F)cnc4[nH]ccc24)CCCC3)nc1 [Example 34, 5-Fluoro-4-[2-(5-fluoro-2-pyridyl)-4,5,6,7-tetrahydropyrazolo[1,5-a]pyridin-3-yl]-1H-pyrrolo[2,3-b]pyridine]
18	2	Cc1nc(-c2c(-c3ccc(F)cc3)nn3c2COC(C)(C)C3)c2cn[nH]c2n1 [Example 394, 2-(4-Fluorophenyl)-6,6-dimethyl-3-(6-methyl-1H-pyrazolo[3,4-d]pyrimidin-4-yl)-4,7-dihydropyrazolo[5,1-c][1,4]oxazine]
17	1	Cc1cc(-c2c(-c3ccc(F)cc3)nn3c2OCCC3)c2cn[nH]c2n1 [Example 185, 2-(4-Fluorophenyl)-3-(6-methyl-1H-pyrazolo[3,4-b]pyridin-4-yl)-6,7-dihydro-5H-pyrazolo[5,1-b][1,3]oxazine]
249	14	Cc1cc(-c2c(-c3ccc(F)cn3)nn3c2O[C@@H](C)C[C@H]3C)c2cn[nH]c2n1 (single isomer, unassigned) [Example 206, (5*S,7*R)-2-(S-Fluoro-2-pyridyl)-5,7-dimethyl-3-(6-methyl-1H-pyrazolo[3,4-b]pyridin-4-yl)-6,7-dihydro-5H-pyrazolo[5,1-b][1,3]oxazine]
3060	18	C[C@H]1OCCn2nc(-c3ccc(F)cn3)c(-c3ccnc4[nH]ccc34)c21 [Example 80, (R)-2-(5-Fluoropyridin-2-yl)-4-methyl-3-(1H-pyrrolo[2,3-b]pyridin-4-yl)-6,7-dihydro-4H-pyrazolo[5,1-c][1,4]oxazine]
29	4	[2H]C([2H])([2H])C1(C([2H])([2H])[2H])Cc2c(-c3c(F)c(C)nc4[nH]ncc34)c(-c3ccc(F)cn3)nn2C1 [Example 244, 5-Fluoro-4-[2-(5-fluoro-2-pyridyl)-5,5-bis(methyl-d3)-4,6-dihydropyrrolo[1,2-b]pyrazol-3-yl]-6-methyl-1H-pyrazolo[3,4-b]pyridine]
171	15	CC1(C)Cn2nc(-c3ccc(F)cn3)c(-c3ccn4ncc(Cl)c4c3)c2CO1 [Example 384, 3-(3-Chloropyrazolo[1,5-a]pyridin-5-yl)-2-(5-fluoropyridin-2-yl)-6,6-dimethyl-6,7-dihydro-4H-pyrazolo[5,1-c][1,4]oxazine]
37	2	Fc1ccc(-c2nn3c(c2-c2ccnc4[nH]ncc24)COCC3)cc1 [Example 70, 2-(4-Fluorophenyl)-3-(1H-pyrazolo[3,4-b]pyridin-4-yl)-6,7-dihydro-4H-pyrazolo[5,1-c][1,4]oxazine]
3	1	CC1(C(F)(F)F)Cn2nc(-c3ccc(F)cc3)c(-c3ccnc4[nH]ncc34)c2CO1 (single isomer, unassigned) [Example 417, (*)-2-(4-Fluorophenyl)-6-methyl-3-(1H-pyrazolo[3,4-b]pyridin-4-yl)-6-(trifluoromethyl)-6,7-dihydro-4H-pyrazolo[5,1-c][1,4]oxazine]
1770	51	Cc1cc(-c2c(-c3ccc(F)cn3)nn3c2OC(C)CC3C)c2cn[nH]c2n1 (single isomer, unassigned) [Example 207, (5*R,7*S)-2-(5-Fluoro-2-pyridyl)-5,7-dimethyl-3-(6-methyl-H-pyrazolo[3,4-b]pyridin-4-yl)-6,7-dihydro-5H-pyrazolo[5,1-b][1,3]oxazine]
681	41	Fc1ccc(-c2nn3c(c2-c2ccnc4[nH]ncc24)CO[C@H](C2CC2)C3)nc1 (single isomer, unassigned) [Example 108, (*R)-6-Cyclopropyl-2-(5-fluoropyridin-2-yl)-3-(1H-pyrazolo[3,4-b]pyridin-4-yl)-6,7-dihydro-4H-pyrazolo[5,1-c][1,4]oxazine]
> 10000	293	Cc1n[nH]c2nc(C(F)F)cc(-c3c(-c4ccc(F)cc4)nn4c3COC(C(F)(F)F)C4)c12 (single isomer, unassigned) [Example 374, (*S)-3-[6-(Difluoromethyl)-3-methyl-1H-pyrazolo[3,4-b]pyridin-4-yl]-2-(4-fluorophenyl)-6-(trifluoromethyl)-6,7-dihydro-4H-pyrazolo[5,1-c][1,4]oxazine]
4	1	CC1(C)Cc2c(-c3ccnc4[nH]ncc34)c(-c3ccc(F)cc3)nn2C1 [Example 231, 4-[2-(4-Fluorophenyl)-5,5-dimethyl-4,6-dihydropyrrolo[1,2-b]pyrazol-3-yl]-1H-pyrazolo[3,4-b]pyridine]
44	3	C[C@@]1(C(F)(F)F)Cn2nc(-c3ccc(F)cn3)c(-c3ccnc4[nH]ncc34)c2CO1 (single isomer, unassigned) [Example 177, (*S)-2-(5-Fluoropyridin-2-yl)-6-methyl-3-(1H-pyrazolo[3,4-b]pyridin-4-yl)-6-(trifluoromethyl)-6,7-dihydro-4H-pyrazolo[5,1-c][1,4]oxazine]
23	3	[2H]C([2H])([2H])C1(C([2H])([2H])[2H])Cn2nc(-c3ccc(F)cn3)c(-c3c(F)c(C)nc4[nH]ncc34)c2CO1 [Example 406, 3-(5-Fluoro-6-methyl-1H-pyrazolo[3,4-b]pyridin-4-yl)-2-(5-fluoropyridin-2-yl)-6,6-bis(methyl-d3)-6,7-dihydro-4H-pyrazolo[5,1-c][1,4]oxazine]
21	2	Cc1cc(-c2c(-c3ccc(F)cc3)nn3c2COCC3)c2cn[nH]c2n1 [Example 71, 2-(4-Fluorophenyl)-3-(6-methyl-1H-pyrazolo[3,4-b]pyridin-4-yl)-6,7-dihydro-4H-pyrazolo[5,1-c][1,4]oxazine]
> 10000	241	O=C1OCCn2nc(-c3ccc(F)cn3)c(-c3ccnc4[nH]ncc34)c21 [Example 182, 2-(5-Fluoro-2-pyridyl)-3-(1H-pyrazolo[3,4-b]pyridin-4-yl)-6,7-dihydropyrazolo[5,1-c][1,4]oxazin-4-one]
19	2	Cc1cc(-c2c(-c3ccc(F)cc3)nn3c2CC[C@H]3C)c2cn[nH]c2n1 [Example 18, 4-[(6R)-2-(4-Fluorophenyl)-6-methyl-5,6-dihydro-4H-pyrrolo[1,2-b]pyrazol-3-yl]-6-methyl-1H-pyrazolo[3,4-b]pyridine]
4340	184	CC1CCOc2c(-c3ccn4nccc4c3)c(-c3ccc(F)cn3)nn21 (centres unmarked) [Example 446, 2-(5-Fluoropyridin-2-yl)-7-methyl-3-(pyrazolo[1,5-a]pyridin-5-yl)-6,7-dihydro-5H-pyrazolo[5,1-b][1,3]oxazine]
22	1	Fc1ccc(-c2nn3c(c2-c2ccnc4[nH]ncc24)CCC3)cc1 [Example 4, 4-(2-(4-Fluorophenyl)-5,6-dihydro-4H-pyrrolo[1,2-b]pyrazol-3-yl)-1H-pyrazolo[3,4-b]pyridine]
12	2	COCC1(F)CCc2c(-c3cc(C)nc4[nH]ccc34)c(-c3ccc(F)cn3)nn2C1 (single isomer, unassigned) [Example 298, (*S)-4-[6-Fluoro-2-(5-fluoro-2-pyridyl)-6-(methoxymethyl)-5,7-dihydro-4H-pyrazolo[1,5-a]pyridin-3-yl]-6-methyl-1H-pyrrolo[2,3-b]pyridine]
5120	102	[2H]C([2H])([2H])OC([2H])([2H])[C@@]1(F)CCc2c(-c3cc(C)nc4[nH]ncc34)c(-c3ccc(F)cn3)nn2C1 (single isomer, unassigned) [Example 313, (*R)-4-[6-[(Methoxy-d3)methyl-d2]-6-fluoro-2-(5-fluoro-2-pyridyl)-5,7-dihydro-4H-pyrazolo[1,5-a]pyridin-3-yl]-6-methyl-1H-pyrazolo[3,4-b]pyridine]
80	4	Fc1ccc(-c2nn3c(c2-c2c(F)cnc4[nH]ncc24)OCC2(CC2)C3)nc1 [Example 459, 3′-(5-Fluoro-1H-pyrazolo[3,4-b]pyridin-4-yl)-2′-(5-fluoropyridin-2-yl)-5′H,7′H-spiro[cyclopropane-1,6′-pyrazolo[5,1-b][1,3]oxazine]]
11	2	CC1(C)COc2c(-c3ccnc4cn[nH]c34)c(-c3ccc(F)cc3)nn2C1 [Example 453, 2-(4-Fluorophenyl)-6,6-dimethyl-3-(1H-pyrazolo[4,3-b]pyridin-7-yl)-5,7-dihydropyrazolo[5,1-b][1,3]oxazine]
115	4	CC1(C)Cc2c(-c3cc(C(F)F)nc4[nH]ncc34)c(-c3ccc(F)cn3)nn2C1 [Example 239, 6-(Difluoromethyl)-4-[2-(5-fluoro-2-pyridyl)-5,5-dimethyl-4,6-dihydropyrrolo[1,2-b]pyrazol-3-yl]-1H-pyrazolo[3,4-b]pyridine]
38	2	Fc1ccc(-c2nn3c(c2-c2ccnc4[nH]ncc24)OCCCC3)cc1 [Example 216, 2-(4-Fluorophenyl)-3-(1H-pyrazolo[3,4-b]pyridin-4-yl)-5,6,7,8-tetrahydropyrazolo[5,1-b][1,3]oxazepane]

From patent US20230339970A1, “CASEIN KINASE 1 DELTA MODULATORS” (priority 2020, published 2023)
